Patent US10729130B2, “Nematicidal compositions and methods of using them” (Eden Research plc, priority 2004, dated 2020)
Each block holds one compound with its values, some of them ahead of it.

Columns and labels:
[1] = Solution levels of terpenes in water (true solution by shear blending); type: physicochemical; conditions: maximum level solubilized in water by solution-forming shear blending
[2] = system: root-knot nematodes; experiment: Nematicidal activity of high purity versus low purity citral; type: in vivo, root-knot nematode; conditions: average of four replicates
Method: Compositions of regular and technical ciral at 250 and 125 ppm were produced in 1% Tween 80 and incubated with root-knot nematodes a in the same way as previously described. Observations of the kill rate (percentage dead) were made at 21 and 42 hours.
The results are shown below in Table 13 and are the average of four replicates.

[3] = Terpene stability: yellow colored oxidation product (colour of encapsulated terpene pellet); type: physicochemical; design: key to Colour: W = white; Y = yellow; sl = slight; int = intermediate
Method: Loading reactions were set up as shown in Table 25 and left to incubate overnight. Samples were centrifuged at 14,000×g for 10 minutes and the appearance of free terpene floating on the aqueous layer and the color of the encapsulated terpenes in the pellet was scored. The highest volume of terpene absorbed by particles as evidenced by the absence of free terpene was recorded as the volume of absorbed terpene emulsion. The reactions were incubated for 1, 3, 6, 9 and 24 hours at room temperature or 37° C. After incubation samples were centrifuged at 14,000×g for 10 minutes and the appearance of free terpene floating on the aqueous layer was scored. The highest volume of terpene absorbed by the particles as evidenced by the absence of free terpene was recorded as the volume of absorbed terpene emulsion. Colour of the encapsulated pellet was scored at 24 hours. Increasing volumes of terpene emulsion were mixed with 250 mg/ml Baker's YP or 250 mg/ml SAF Mannan™ overnight at room temperature as shown in Tables 27 and 28. Samples were centrifuged at 14,000×g for 10 minutes and the appearance of free terpene floating on the aqueous layer was scored. The highest volume of terpene emulsion absorbed by Baker's YP or SAF Mannan™ as evidenced by the absence of free terpene was recorded as the volume of absorbed terpene emulsion. Colour of encapsulated terpenes in the pellet was recorded.

[4] = Baker's YP loading of different terpenes and terpene mixtures; type: physicochemical; design: key to Free Terpene: +: “free terpene” refers to the visible presence of terpene in the centrifuged reaction mixture; −: The absence of free terpene indicates complete absorption of the terpene by the particles; conditions: for Free Terpene: Baker's YP 250 mg/ml 500 μl; for Vol. Loaded μl: approximate maximal terpene loading in Baker's YP; for % Loaded w/w: maximal loading in Baker's YP, ratio of terpene loaded to particle present, weight for weight
Method: (§1) Increasing volumes of terpene emulsion were mixed with 250 mg/ml Baker's YP or 250 mg/ml SAF Mannan™ overnight at room temperature as shown in Tables 27 and 28. Samples were centrifuged at 14,000×g for 10 minutes and the appearance of free terpene floating on the aqueous layer was scored. The highest volume of terpene emulsion absorbed by Baker's YP or SAF Mannan™ as evidenced by the absence of free terpene was recorded as the volume of absorbed terpene emulsion. Colour of encapsulated terpenes in the pellet was recorded.
(§2) Percentage loaded represents a ratio of the amount of terpene loaded to the amount of particle present (weight for weight).

[5] = SAF Mannan loading of different terpenes and terpene mixtures; type: physicochemical; design: key to Free Terpene: +: “free terpene” refers to the visible presence of terpene in the centrifuged reaction mixture; −: The absence of free terpene indicates complete absorption of the terpene by the particles; key to Free Terpene: phase inversion remark: Inverted = Phase Inverted - solids floating on top - no free oil; W = white; Y = yellow; conditions: for Free Terpene: SAF Mannan 500 μl (250 mg/ml), overnight, room temperature; for Free Terpene: phase inversion remark: SAF Mannan 500 μl, second line of the Free Terpene cell; for Vol. loaded (maximal terpene loading in SAF Mannan): approximate maximal loading, volume of terpene emulsion absorbed by SAF Mannan; for % Loaded w/w (maximal terpene loading in SAF Mannan): ratio of amount of terpene loaded to amount of particle present (weight for weight)
Method: as §1, §2

[6] = Table 27, Baker's YP, emulsion 15 μl
[7] = Table 27, Baker's YP, emulsion 37.5 μl
[8] = Table 27, Baker's YP, emulsion 75 μl
[9] = Table 27, Baker's YP, emulsion 112.5 μl
[10] = Table 27, Baker's YP, emulsion 150 μl
[11] = Table 27, Baker's YP, emulsion 225 μl
[12] = Table 27, Baker's YP, emulsion 450 μl
[13] = colour of encapsulated terpene in pellet, SAF Mannan 500 μl, terpene emulsion vol 15
[14] = colour of encapsulated terpene in pellet, SAF Mannan 500 μl, terpene emulsion vol 37.5
[15] = colour of encapsulated terpene in pellet, SAF Mannan 500 μl, terpene emulsion vol 75
[16] = colour of encapsulated terpene in pellet, SAF Mannan 500 μl, terpene emulsion vol 112.5
[17] = colour of encapsulated terpene in pellet, SAF Mannan 500 μl, terpene emulsion vol 150
[18] = colour of encapsulated terpene in pellet, SAF Mannan 500 μl, terpene emulsion vol 225
[19] = colour of encapsulated terpene in pellet, SAF Mannan 500 μl, terpene emulsion vol 450
[20] = emulsion 15 μl, 1% Tween-80 485 μl
[21] = emulsion 37.5 μl, 1% Tween-80 462.5 μl
[22] = emulsion 75 μl, 1% Tween-80 425 μl
[23] = emulsion 150 μl, 1% Tween-80 350 μl
[24] = emulsion 225 μl, 1% Tween-80 275 μl
[25] = emulsion 450 μl, 1% Tween-80 50 μl
[26] = terpene emulsion vol 15, 1% Tween-80 485 μl
[27] = terpene emulsion vol 37.5, 1% Tween-80 462.5 μl
[28] = terpene emulsion vol 75, 1% Tween-80 425 μl
[29] = terpene emulsion vol 150, 1% Tween-80 350 μl
[30] = terpene emulsion vol 225, 1% Tween-80 275 μl
[31] = terpene emulsion vol 450, 1% Tween-80 50 μl

Compound: C=C(C)C1CC=C(C)C(=O)C1 (stereo not shown) [Carvone]
Solution Level [1]: 500 ppm

Compound: CC(C)=CCCC(C)=CC=O [Citral (80% pure), citral]
average percentage dead ([2]; 125 ppm in 1% Tween 80, 21 h): 29%
average percentage dead ([2]; 125 ppm in 1% Tween 80, 42 h): 27%
average percentage dead ([2]; 250 ppm in 1% Tween 80, 21 h): 89%
average percentage dead ([2]; 250 ppm in 1% Tween 80, 42 h): 96%

Compound: CC(C)=CCCC(C)=CC=O [Citral (98% pure), citral]
average percentage dead ([2]; 125 ppm in 1% Tween 80, 21 h): 23%
average percentage dead ([2]; 125 ppm in 1% Tween 80, 42 h): 22%
average percentage dead ([2]; 250 ppm in 1% Tween 80, 21 h): 87%
average percentage dead ([2]; 250 ppm in 1% Tween 80, 42 h): 87%

Further lines, results first:

Solution Level [1]: 500 ppm
Compound: Terpeniol

Colour [3, 6]: W
Colour [3, 7]: W
Colour [3, 8]: W
Colour [3, 9]: W
Colour [3, 10]: W
Colour [3, 11]: W
Colour [3, 12]: W
Colour [3, 13]: W
Colour [3, 14]: W
Colour [3, 15]: W
Colour [3, 16]: W
Colour [3, 17]: W
Colour [3, 18]: W
Colour [3, 19]: W
Free Terpene [4, 20]: −
Free Terpene [4, 21]: −
Free Terpene [4, 22]: −
Free Terpene ([4]; emulsion 112.5 μl, 1% Tween-80 387.5 μl): +
Free Terpene [4, 23]: +
Free Terpene [4, 24]: +
Free Terpene [4, 25]: +
Vol. Loaded μl [4]: 75 µL
% Loaded w/w [4]: 67% w/w
Free Terpene [5, 26]: −
Free Terpene [5, 27]: −
Free Terpene [5, 28]: −
Free Terpene ([5]; terpene emulsion vol 112.5, 1% Tween-80 387.5 μl): −
Free Terpene [5, 29]: −
Free Terpene [5, 30]: −
Free Terpene [5, 31]: +
Free Terpene: phase inversion remark ([5]; terpene emulsion vol 225): Inverted
Free Terpene: phase inversion remark ([5]; terpene emulsion vol 450): Inverted
Vol. loaded (maximal terpene loading in SAF Mannan) [5]: 150 µL
% Loaded w/w (maximal terpene loading in SAF Mannan) [5]: 133% w/w
Solution Level [1]: 500 ppm
Compound: CC(C)=CCC/C(C)=C/CO [Geraniol]

Solution Level [1]: 500 ppm
Compound: CC(=O)/C=C/C1=C(C)CCCC1(C)C [b-ionone]

Colour [3, 6]: W
Colour [3, 7]: W
Colour [3, 8]: W
Colour [3, 9]: W
Colour [3, 10]: W
Colour [3, 11]: W
Colour [3, 12]: W
Colour [3, 13]: W
Colour [3, 14]: W
Colour [3, 15]: W
Colour [3, 16]: W
Colour [3, 17]: W
Colour [3, 18]: W
Colour [3, 19]: W
Free Terpene [4, 20]: −
Free Terpene [4, 21]: −
Free Terpene [4, 22]: −
Free Terpene [4, 23]: +
Free Terpene [4, 24]: +
Free Terpene [4, 25]: +
Vol. Loaded μl [4]: 75 µL
% Loaded w/w [4]: 67% w/w
Free Terpene [5, 26]: −
Free Terpene [5, 27]: −
Free Terpene [5, 28]: −
Free Terpene [5, 29]: +
Free Terpene [5, 30]: +
Free Terpene [5, 31]: +
Vol. loaded (maximal terpene loading in SAF Mannan) [5]: 112.5 µL
% Loaded w/w (maximal terpene loading in SAF Mannan) [5]: 100% w/w
Compound: C=CCc1ccc(O)c(OC)c1 [Eugenol]
